Legend:
[1] = tested on: tetA promoter (PtetA)-lacZ reporter in E. coli KM3; assay type: cell-based; details: L1 hits; 20 μg/ml
tet operator (tetO) = experiment: Electrophoretic gel mobility shift assay (EMSA), tet operator binding; details: ethametsulfuron repressor protein (L7A11) with TetO DNA; FIG. 7
[2] = tested on: tobacco BY-2 cell culture; experiment: Tobacco BY-2 cell culture (dMMV-HRA) sulfonylurea resistance; assay type: cell-based, N. tabacum; details: 200 ppb chlorsulfuron
Description: In addition to the leaf assay it was desired to have an in planta assay to enable high throughput screening of SuR libraries for optimal plant functionality. We designed a system similar to the leaf assay but using tobacco BY-2 cell culture in 96-well format. BY-2 cell culture was transformed with a dMMV-HRA construct such that the culture would withstand treatment with target sulfonylurea test compounds.

[3] = pH 7; cited from earlier work

SMILES | activator potency compared with the starting ligand Harmony® [1] | release of repressor from operator sequence by inducer (tet operator (tetO)) | growth of dMMV-HRA transformed BY-2 cell line [2] | logP [3]
CCOc1nc(NC)nc(NC(=O)NS(=O)(=O)c2ccccc2C(=O)OC)n1 [ethametsulfuron, Ethametsulfuron-methyl, reference compound] | more potent activators | inducer preference for operator release |  | 
COc1nc(C)nc(NC(=O)NS(=O)(=O)c2ccccc2Cl)n1 [chlorsulfuron, 2 chloro N ((4 methoxy 6 methy 1,3,5 triazine 2 yl)aminocarbonyl)benzenesulfonamide, reference compound] | more potent activators |  | fully resistant | 
COC(=O)c1sccc1S(=O)(=O)NC(=O)Nc1nc(C)nc(OC)n1 [Harmony®, thifensulfuron-methyl] |  |  |  | ~0.02
Cc1c2c(c(O)c3c(O)cccc13)C(=O)[C@]1(O)C(=O)C(C(N)=O)=C(O)[C@@H](N(C)C)[C@@H]1C2 [atc, anhydrotetracycline] |  | No change in operator release |  | 
CCOC(=O)c1ccccc1S(=O)(=O)NC(=O)Nc1nc(Cl)cc(OC)n1 [chlorimuron, Chlorimuron-ethyl, reference compound] | more potent activators |  |  | 
